Columns and labels:
Experiment in all cases: Test C postemergence greenhouse test, plant response rating 0-100
Assay type in all cases: in vivo
[1] = test system: woolly cupgrass (Eriochloa villosa); details: for Plant response rating, Cupgrass, Woolly: scale 0 to 100
Outline: (§1)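 Visual rating vs. controls, 0 (no effect) to 100 (complete control), 13–15 d after postemergence treatment. Potted plants, 1- to 4-leaf stage (2–18 cm), greenhouse-held.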

[2] = test system: goosegrass (Eleusine indica); details: for Plant response rating, Goosegrass: scale 0 to 100
Outline: as §1

[3] = test system: cocklebur (common cocklebur, Xanthium strumarium); details: for Plant response rating, Cocklebur: scale 0 to 100
Outline: as §1

[4] = test system: canarygrass (Phalaris minor); details: for Plant response rating, Canarygrass: scale 0 to 100
Outline: as §1

[5] = test system: deadnettle (henbit deadnettle, Lamium amplexicaule); details: for Plant response rating, Deadnettle: scale 0 to 100
Outline: as §1

Row | SMILES | Plant response rating (0 to 100), Cupgrass, Woolly ([1]; 31 g ai/ha) | Plant response rating (0 to 100), Cupgrass, Woolly ([1]; 62 g ai/ha) | Plant response rating (0 to 100), Cupgrass, Woolly ([1]; 125 g ai/ha) | Plant response rating, Cupgrass, Woolly ([1]; 250 g ai/ha) | Plant response rating (0 to 100), Goosegrass ([2]; 31 g ai/ha) | Plant response rating (0 to 100), Goosegrass ([2]; 62 g ai/ha) | Plant response rating (0 to 100), Goosegrass ([2]; 125 g ai/ha) | Plant response rating, Goosegrass ([2]; 250 g ai/ha) | Plant response rating (0 to 100), Cocklebur ([3]; 31 g ai/ha) | Plant response rating (0 to 100), Cocklebur ([3]; 62 g ai/ha) | Plant response rating (0 to 100), Cocklebur ([3]; 125 g ai/ha) | Plant response rating, Cocklebur ([3]; 250 g ai/ha) | Plant response rating (0 to 100), Canarygrass ([4]; 31 g ai/ha) | Plant response rating (0 to 100), Canarygrass ([4]; 62 g ai/ha) | Plant response rating (0 to 100), Canarygrass ([4]; 125 g ai/ha) | Plant response rating, Canarygrass ([4]; 250 g ai/ha) | Plant response rating (0 to 100), Deadnettle ([5]; 31 g ai/ha) | Plant response rating (0 to 100), Deadnettle ([5]; 62 g ai/ha) | Plant response rating (0 to 100), Deadnettle ([5]; 125 g ai/ha) | Plant response rating, Deadnettle ([5]; 250 g ai/ha) | further results
1 | CCn1cc(C(=O)c2ccccc2)c(-c2cc(Br)cc(Br)c2)n1 [Compound 38] | 0 | 0 | 0 | 0 | 0 | 0 | 0 | 0 | 5 | 10 | 15 | 15 | 0 | 0 | 0 | 5 | 0 | 0 | 0 | 5 | –
2 | CC(C)n1cc(C(=O)c2ccccc2)c(-c2cc(Cl)cc(Cl)c2)n1 [Compound 44] | 0 | 5 | 5 | 5 | 0 | 0 | 0 | 0 | 0 | 0 | 10 | 30 | 0 | 0 | 0 | 0 | 0 | 0 | 0 | 0 | –
3 | Cn1cc(C(=O)c2ccccc2)c(-c2cc(Br)cc(Br)c2)n1 [Compound 53] | – | 5 | 5 | 5 | – | 5 | 5 | 5 | – | 5 | 10 | 10 | – | 0 | 0 | 0 | – | 0 | 0 | 0 | Plant response rating, Cupgrass, Woolly ([1]; 500 g ai/ha): 5; Plant response rating, Goosegrass ([2]; 500 g ai/ha): 5; Plant response rating, Cocklebur ([3]; 500 g ai/ha): 15; Plant response rating, Canarygrass ([4]; 500 g ai/ha): 0; Plant response rating, Deadnettle ([5]; 500 g ai/ha): 0
4 | Fc1ccccc1NN=C(c1ccccc1)c1c[nH]nc1-c1cc(Cl)cc(Cl)c1 [Compound 57] | 0 | 0 | 5 | 5 | 0 | 0 | 0 | 0 | 10 | 70 | 70 | 70 | 0 | 0 | 0 | 0 | 0 | 0 | 0 | 0 | –

Source: patent publication US10167262B2, “Herbicidal substituted 3-arylpyrazoles” (FMC CORPORATION, priority 2014, dated 2019)
